Data taken from article PMC4754833, “Rilpivirine analogs potently inhibit drug-resistant HIV-1 mutants” (Retrovirology, 2016).

Key:
Format in all cases: cell-based
HIV-1 RT mutant K101E = test: single round infection assay, K101E; details: for IC50: ± SD, n=4
Experimental: (§1) The human osteosarcoma cell line, HOS, was obtained from Dr. Richard Schwartz (Michigan State University, East Lansing, MI) and grown in Dulbecco’s modified Eagle’s medium (Invitrogen, Carlsbad, CA) supplemented with 5 % (v/v) fetal bovine serum, 5 % newborn calf serum, and penicillin (50 units/ml) plus streptomycin (50 µg/ml; Quality Biological, Gaithersburg, MD). Virion production and single-round infectivity assays were used to determine antiviral activity (IC50 values) of the compounds as previously described.
(§2) pNLNgoMIVR-ΔEnv.LUC has been described previously. The RT open reading frame was removed from pNLNgoMIVR-ΔEnv.LUC (digestion with SpeI and SalI) and inserted between the SpeI and SalI sites of pBluescript II KS+. Using that construct as the wild-type template, we prepared the following HIV-1 RT mutants using the QuikChange II XL (Stratagene, La Jolla, CA) site-directed mutagenesis protocol kit: L100I, K103N, Y181C, Y188L, H221Y, K103N/Y181C, G190A, G190S, M230L, P236L, L100I/K103N, K103N/P225H, V106A/G190A/F227L, V106A, L234I, V106A/F227L, V106A/L234I, V106A/F227L/L234I, E40K, D67E, K101E, V111A, E138K, M184I, M184V, K101E/M184I, K101E/M184V, E138K/M184I, E138K/M184V, K101P, Y181I, and K101P/V179I. The following sense oligonucleotides were used with matching cognate antisense oligonucleotides (not shown) (Integrated DNA Technologies, Coralville, IA) in the mutagenesis: L100I, 5′-[…]-3′; L100I 2-103, 5′-[…]-3′; K103N, 5′-[…]-3′; Y181C, 5′-[…]-3′; Y188L, 5′-[…]-3′; H221Y, 5′-[…]-3′; G190A, 5′-[…]-3′; G190S, 5′-[…]-3′; P225H, 5′-[…]-3′; F227, 5′-[…]-3′; M230L, 5′-[…]-3′; P236L, 5′-[…]-3′; V106A, 5′-[…]-3′; L234I, 5′-[…]-3′; E40K, 5′-[…]-3′; D67E, 5′-[…]-3′; K101E, 5′-[…]-3′; V111A, 5′-[…]-3′; E138K, 5′-[…]-3′; M184I, 5′-[…]-3′; M184V, 5′-[…]-3′; K101P, 5′-[…]-3′; Y181I, 5′-[…]-3′; K101P/V179I, 5′-[…]-3′. The double mutants K103N/Y181C, K103N/P225H, and L100I/K103N were made using the previously generated K103N mutant and the appropriate oligonucleotides to add the second mutation, Y181C, P225, and L100I respectively. The double mutants V106A/F227L and V106A/L234I were prepared using the previously generated V106A mutant and the appropriate oligonucleotides to add the second mutation, F227L and L234I, respectively. The double mutants K101E/M184I and K101E/M184V were constructed using the previously generated K101E mutant and the appropriate oligonucleotides to add the second mutation, M184I and M184V, respectively. The double mutants E138K/M184I and E138K/M184V were constructed using the previously generated E138K mutant and the appropriate oligonucleotides for the second mutation, M184I and M184V, respectively. The triple mutant V106A/F227L/L234I was made using the previously generated V106A/F227L double mutant and the appropriate oligonucleotides for the third mutation, L234I. The triple mutant V106A/G190A/F227L was constructed in a series of steps using the previously generated V106A mutant and the appropriate oligonucleotides for the second mutation, G190A, to generate the double mutant V106A/G190A, and then the triple mutant was made using double mutant V106A/G190A and oligonucleotides for the third mutation, F227L. The DNA sequence of each construct was verified by DNA sequence determination. The sequences encoding the mutant RTs were then subcloned into pNLNgoMIVR-ΔEnv.LUC (between the KpnI and SalI sites) to produce the mutant HIV-1 constructs. These DNA sequences were also checked independently by DNA sequence determination.
(§3) 10.1186/s12977-016-0244-2 The IC50 values (nM) of RPV and the RPV analogs were determined against the NNRTI resistant mutants were measured by using a single round infection assay, n = 4. The concentrations (nM) are measured by reductions in luciferase reporter activity followed by the standard deviations. […]

HIV-1 RT mutant P236L = test: single round infection assay, P236L
HIV-1 RT mutant E40K = test: single round infection assay, E40K; details: E40K vs WT
Experimental: as §1, §2, §3

[1] = tested on: HIV-1 RT mutant K101P/V179I; test: single round infection assay, K101P/V179I; details: Human immunodeficiency virus 1
HIV-1 RT mutant K101P = test: single round infection assay, K101P; details: Human immunodeficiency virus 1
HIV-1 RT mutant E138K = test: single round infection assay, E138K; details: for IC50: ± SD, n=4
[2] = tested on: HIV-1 RT mutant K103N/P225H; test: single round infection assay, K103N/P225H
HIV-1 RT mutant G190A = test: single round infection assay, G190A; details: Human immunodeficiency virus 1
[3] = tested on: HIV-1 RT mutant K101E/M184V; test: single round infection assay, K101E/M184V; details: K101E/M184V vs WT
Experimental: as §1, §2, §3

HIV-1 RT mutant V106A = test: single round infection assay, V106A; details: for IC50: ± SD, n=4
Experimental: as §1, §2, §3

[4] = tested on: HIV-1 RT mutant V106A/G190A/F227L; test: single round infection assay, V106A/G190A/F227L
[5] = tested on: HIV-1 RT mutant V106A/F227L/L234I; test: single round infection assay, V106A/F227L/L234I; details: for IC50: ± SD, n=4
HIV-1 RT mutant M230L = test: single round infection assay, M230L

Cc1cc(/C=C/C#N)cc(C)c1Nc1ncc(N)c(Nc2ccc(C#N)cc2)n1 [compound 9]
IC50 (HIV-1 RT mutant K101E; Human immunodeficiency virus 1, K101E): < 6 nM
fold-change of IC50 of the mutant relative to WT (HIV-1 RT mutant K101E; K101E vs WT): 3
IC50 (HIV-1 RT mutant K101E; K101E): 4.1 ± 1.5 nM
IC50 (HIV-1 RT mutant P236L; Human immunodeficiency virus 1): 1.7 ± 0.7 nM
fold-change of IC50 of the mutant relative to WT (HIV-1 RT mutant P236L; P236L vs WT): < 2
fold-change of IC50 of the mutant relative to WT (HIV-1 RT mutant E40K): 2
IC50 [1]: > 100 nM
IC50 (HIV-1 RT mutant K101P): > 100 nM
fold-change of IC50 of the mutant relative to WT (HIV-1 RT mutant E138K; E138K vs WT): 4
IC50 (HIV-1 RT mutant E138K; E138K): 5.6 ± 1.4 nM
IC50 (HIV-1 RT mutant E138K; Human immunodeficiency virus 1, E138K): < 6 nM
IC50 ([2]; Human immunodeficiency virus 1): 4.6 ± 0.3 nM
fold-change of IC50 of the mutant relative to WT ([2]; K103N/P225H vs WT): 4
IC50 (HIV-1 RT mutant G190A): 0.6 nM
fold-change of IC50 of the mutant relative to WT [3]: < 2
IC50 (HIV-1 RT mutant V106A; Human immunodeficiency virus 1, V106A (selected by DOR)): < 5 nM
IC50 (HIV-1 RT mutant V106A; V106A (selected by DOR)): 2.5 ± 1.2 nM
fold-change of IC50 of the mutant relative to WT (HIV-1 RT mutant V106A; V106A vs WT): < 2
IC50 ([4]; Human immunodeficiency virus 1): 4.6 ± 0.3 nM
fold-change of IC50 of the mutant relative to WT ([4]; V106A/G190A/F227L vs WT): 4
IC50 ([5]; Human immunodeficiency virus 1, V106A/F227L/L234I (selected by DOR)): < 5 nM
IC50 ([5]; V106A/F227L/L234I (selected by DOR)): 6.4 ± 1.8 nM
fold-change of IC50 of the mutant relative to WT ([5]; V106A/F227L/L234I vs WT): 5
IC50 (HIV-1 RT mutant M230L; Human immunodeficiency virus 1, M230L, ± SD, n=4, limit of detection 100 nM): 29.6 nM
fold-change of IC50 of the mutant relative to WT (HIV-1 RT mutant M230L; M230L vs WT): 23
